Type in all cases: cell-based
The test system of experiment [1] is Proteus vulgaris 3027. Nature of the experiment: MIC, plate method, standard strains. As to conditions: Table 3, standard strain; unit assumed. As for the experimental part:
(§1) The minimum inhibitory concentration (MIC) was determined by the plate method disclosed in "Chemotherapy" (Japan), Vol. 16, (1968), pages 98-99. The culture medium used was a Heart infusion agar (pH 7.4). The number of the cells per plate used in the inoculum was 10^4 (10^6 cells/ml).

The subject of experiment [2] is Escherichia coli NIHJ. Nature of the experiment: MIC, plate method, standard strains. As to conditions: Table 3, standard strain; unit assumed. On the procedure: as §1
For experiment [3], the system named is Pseudomonas aeruginosa. Briefly: MIC against clinical isolates. To be noted: Table 6-3, clinical isolate, unit assumed.
In experiment [4] the test system is Staphylococcus aureus 209p. Briefly: MIC, plate method, standard strains. As to conditions: Table 3, standard strain, Heart infusion agar pH 7.4; unit assumed. On the procedure:
as §1

Experiment [5] concerns Escherichia coli. Briefly: MIC against clinical isolates. As to conditions: Table 5-2, clinical isolate; unit assumed.
For experiment [6], the system named is Staphylococcus aureus. Nature of the experiment: MIC against clinical isolates. To be noted: Table 5-1, clinical isolate; unit assumed.
In experiment [7] the test system is Klebsiella pneumoniae. Briefly: MIC, plate method, standard strains. To be noted: Table 3, standard strain; unit assumed. On the procedure: as §1
The test system of experiment [8] is Shigella sonnei. Nature of the experiment: MIC against clinical isolates. As to conditions: Table 5-5, clinical isolate; unit assumed. On the procedure:
as §1
(§2) MIC was determined in the same manner as in the preceding paragraph (1).

In experiment [9] the test system is Shigella flexneri. Briefly: MIC against clinical isolates. As to conditions: Table 5-5, clinical isolate; unit assumed. As for the experimental part: as §1, §2

Structures are written as SMILES. Converted amounts (≈) assume the structure as drawn.

On to `C=CCN1CCN(C(=O)NC(C(=O)NC2C(=O)N3C2SC(C)(C)C3C(=O)O)c2ccccc2)C(=O)C1=O` (single isomer, unassigned) [Compound 42], for which, in experiment [1], the MIC Proteus vulgaris 3027 is less than 1.57 mg/L. For the same molecule, the MIC Esche--richin coil NIHJ in experiment [2] was less than 1.57 mg/L.

Consider `CC(=O)OCC1=C(C(=O)O)N2C(=O)C(NC(=O)C(NC(=O)N3CCN(C)C(=O)C3=O)c3ccccc3)C2SC1` (single isomer, unassigned) [Compound No. 60], for which, in experiment [3], the MIC Pseudomonas aeruginosa GN4 was 50 mg/L (≈ 89.4 µM), the MIC Pseudomonas aeruginosa GN 82 was found to be 50 mg/L (≈ 89.4 µM), the MIC Pseudomonas aeruginosa GN 376 was 50 mg/L (≈ 89.4 µM) and the MIC Pseudomonas aeruginosa GN 2987 is 50 mg/L (≈ 89.4 µM).

`COCOC(=O)C1N2C(=O)C(NC(=O)C(NC(=O)N3CCN(C)C(=O)C3=O)c3ccccc3)C2SC1(C)C` (single isomer, unassigned) [compound 50] registered an MIC Proteus vulgaris 3027 in experiment [1] of less than 0.79 mg/L. The molecule further returned an MIC Esche--richin coil NIHJ in [2] of less than 0.79 mg/L. This molecule also came in with an MIC Staphylococcus aureus 209p in [4] of less than 0.79 mg/L.

The molecule `CCN1CCN(C(=O)NC(C(=O)NC2C(=O)N3C(C(=O)O)=C(COC(C)=O)CSC23)c2ccccc2)C(=O)C1=O` (centres unmarked) [Compound No. 61] had an MIC Pseudomonas aeruginosa GN in experiment [3] (strain number not given) of 25 mg/L (≈ 43.6 µM). The molecule further registered an MIC Pseudomonas aeruginosa GN4 in [3] of 12.5 mg/L (≈ 21.8 µM).

In experiment [2], `CN1CCN(C(=O)NC(C(=O)NC2C(=O)N3C2SC(C)(C)C3C(=O)OCCN2CCCCC2)c2ccccc2)C(=O)C1=O` (single isomer, unassigned) [compound 53] had an MIC Esche--richin coil NIHJ of less than 0.4 mg/L.

In experiment [5], `CCCCN1CCN(C(=O)N[C@@H](C(=O)N[C@@H]2C(=O)N3[C@@H]2SC(C)(C)[C@@H]3C(=O)O)c2ccccc2)C(=O)C1` [Compound 14] gave an MIC Escherichia coli GN 3435 of 6.25 mg/L (≈ 11.8 µM), an MIC Escherichia coli GN 3452 of 6.25 mg/L (≈ 11.8 µM), an MIC Escherichia coli GN 3481 of 6.25 mg/L (≈ 11.8 µM) and an MIC Escherichia coli K-1 of 3.13 mg/L (≈ 5.89 µM). This molecule had an MIC Escherichia coli K-4 in experiment [5] of 6.25 mg/L (≈ 11.8 µM). In [6], the MIC Staphylococcus aureus F-2 turned out to be 1.57 mg/L (≈ 2.95 µM), the MIC Staphylococcus aureus F-4 stood at 6.25 mg/L (≈ 11.8 µM), the MIC Staphylococcus aureus MS 8588 came to 3.13 mg/L (≈ 5.89 µM) and the MIC Staphylococcus aureus MS 8596 came to 3.13 mg/L (≈ 5.89 µM). In addition, in experiment [6], the MIC Staphylococcus aureus MS 8684 worked out at 3.13 mg/L (≈ 5.89 µM) and the MIC Staphylococcus aureus MS 8713 is 3.13 mg/L (≈ 5.89 µM). Also, the MIC Proteus vulgaris 3027 in experiment [1] is less than 1.57 mg/L. This molecule also displayed an MIC Esche--richin coil NIHJ in experiment [2] of less than 1.57 mg/L. In addition, the MIC Klebsiella pneumoniae in experiment [7] is 3.13 mg/L (≈ 5.89 µM). In addition, the MIC Staphylococcus aureus 209p in [4] was less than 1.57 mg/L. In experiment [8], the MIC Shigella sonnei JS 11232 worked out at 25 mg/L (≈ 47 µM) and the MIC Shigella sonnei JS 11755 worked out at 6.25 mg/L (≈ 11.8 µM). Further, in experiment [9], the MIC Shigella flexneri JS 11215 came to 25 mg/L (≈ 47 µM) and the MIC Shigella flexneri JS 11839 was found to be 3.13 mg/L (≈ 5.89 µM).

The molecule `CCCCCCCCN1CCN(C(=O)NC(C(=O)NC2C(=O)N3C2SC(C)(C)C3C(=O)OCOC)c2ccccc2)C(=O)C1=O` (single isomer, unassigned) [compound 51] displayed an MIC Proteus vulgaris 3027 in experiment [1] of less than 0.4 mg/L. In [2], this molecule registered an MIC Esche--richin coil NIHJ of less than 0.4 mg/L. In experiment [7], the MIC Klebsiella pneumoniae was less than 0.4 mg/L. Moreover, the MIC Staphylococcus aureus 209p in [4] is less than 0.4 mg/L.

In the case of `CN1CCN(C(=O)N[C@@H](C(=O)N[C@@H]2C(=O)N3[C@@H]2SC(C)(C)[C@@H]3C(=O)OC2OC(=O)c3ccccc32)c2ccccc2)C(=O)C1=O` (single isomer, unassigned) [compound 49], the MIC Staphylococcus aureus 209p in experiment [4] was less than 0.4 mg/L.

Regarding `CC(=O)OCCN1CCN(C(=O)NC(C(=O)NC2C(=O)N3C2SC(C)(C)C3C(=O)O)c2ccccc2)C(=O)C1=O` (single isomer, unassigned) [Compound 41], the MIC Proteus vulgaris 3027 in experiment [1] was less than 1.57 mg/L. Also, the MIC Esche--richin coil NIHJ in [2] was less than 1.57 mg/L. The MIC Staphylococcus aureus 209p in experiment [4] is less than 1.57 mg/L.

Regarding `CC1(C)SC2C(NC(=O)C(NC(=O)N3CCN(c4ccccc4)C(=O)C3=O)c3ccccc3)C(=O)N2C1C(=O)O` (single isomer, unassigned) [Compound 43], the MIC Proteus vulgaris 3027 in experiment [1] is less than 1.57 mg/L. This molecule gave an MIC Esche--richin coil NIHJ in experiment [2] of less than 1.57 mg/L. In experiment [4], this molecule gave an MIC Staphylococcus aureus 209p of less than 1.57 mg/L.

As to `CC1(C)SC2C(NC(=O)C(NC(=O)N3CCN(C4CCCC4)C(=O)C3)c3ccccc3)C(=O)N2C1C(=O)O` (single isomer, unassigned) [Compound 32], the MIC Esche--richin coil NIHJ in experiment [2] is less than 1.57 mg/L. Further, in [4], the MIC Staphylococcus aureus 209p was less than 1.57 mg/L.
